Experiments:
THP1-Blue™ ISG cells = assay: Type I interferon induction in THP1-Blue ISG reporter cells (QUANTI-Blue, A655); assay type: cell-based, human; conditions: for IFN-β levels: 50 μM for 30 minutes, supernatants after overnight incubation, FIG. 10
Method: To determine the relative level of type I interferon induced in human cells by each of the native and derivative molecules as a signature of adjuvant potency, 4×10^5 THP1-Blue™ ISG cells (a human monocyte cell line transfected with an IRF-inducible secreted embryonic alkaline phosphatase reporter gene (Invivogen) which express alkaline phosphatase under the control of a promoter comprised of five IFN-stimulated response elements) were incubated with 100 μM of cyclic [G(3′,5′)pG(3′,5′)p] (CDG), cyclic [G(2′,5′)pG(3′,5′)p] (mixed linkage, or ML-CDG), or HBSS for 30 minutes at 37° C. with 5% CO2. After 30 minutes, cells were washed and plated in 96-well dish in RPMI media containing 10% FBS, and incubated at 37° C. with 5% CO2. Cell culture supernatants from each sample were collected after overnight incubation, and 20 μL of the cell culture supernatants was added to 180 μL QUANTI-Blue reagent (Invivogen) and incubated for 45 minutes to evaluate type I interferon protein levels. Readings at Absorbance 655 nm were taken every 3 minutes using a Versa Max kinetic spectrophotometer (Molecular Diagnostics).
[…]. After 30 minutes, cells were washed and plated in 96-well dish in RPMI media containing 10% FBS, and incubated at 37° C. with 5% CO2. Cell culture supernatants from each sample were collected after overnight incubation, and 20 μL of the cell culture supernatants was added to 180 μL QUANTI-Blue reagent (Invivogen) and incubated for 45 minutes. Readings at Absorbance 655 nm were taken at 15 minutes using a SpectraMax spectrophotometer (Molecular Diagnostics).
The induction of type I interferon in human cells was measured to evaluate the potency of untreated and phosphodiesterase-treated oxo, Rp monothio and Rp, Rp dithio derivatives. […]. After 30 minutes, cells were washed and plated in a 96-well dish in RPMI media containing 10% FBS, and incubated at 37° C. with 5% CO2. Cell culture supernatants from each sample were collected after 16 hr incubation, and 20 μL of the cell culture supernatants was added to 180 μL QUANTI-Blue reagent (Invivogen) and incubated for 25 minutes to evaluate type I interferon protein levels. Readings at Absorbance 655 nm were measured with a Versa Max spectrophotometer (Molecular Diagnostics).

B16 melanoma cells [1] = assay: B16 melanoma subcutaneous tumor model, intratumoral CDN; assay type: in vivo, C57BL/6 mice; conditions: 25 μg intratumoral, three injections, FIG. 18; for anti-tumor efficacy (tumor volume): every three days
Method: To assess the ability of the derivative molecules to promote anti-tumor immunity, B16 melanoma cells (5×10^4 cells in 100 μL PBS) were implanted subcutaneously on the lower back of 6-8 week old female C57BL/6 mice (8 mice per group). Treatments began when tumors reached a volume of approximately 75 mm^3, on day 14 post tumor implantation. The CDN compounds were administered (25 μg in a total volume of 40 μL HBSS) by subcutaneous injection into the center of the tumor using a 27 gauge needle. Injections were repeated every three days, for a total of three intratumoral injections. The CDNs tested were cyclic [G(3′,5′)pG(3′,5′)p] (CDG); cyclic [G(2′,5′)pG(3′,5′)p] (mixed linkage, or ML CDG); Rp, Rp dithio cyclic [G(2′,5′)pG(3′,5′)p] (ML RR-CDG); cyclic [A(3′,5′)pA(3′,5′)p] (CDA); cyclic [A(2′,5′)pA(3′,5′)p] (mixed linkage, or ML CDA); and Rp, Rp dithio cyclic [A(2′,5′)pA(3′,5′)p] (ML RR-CDA).
(§1) To determine whether the effects of the derivative molecules are STING-dependent, B16 melanoma cells (5×10^4 cells in 100 μL PBS) were implanted on the right flanks of 6-8 week old female goldenticket STING^−/− mice, or wild-type C57BL/6 control mice (5 mice per group). Treatments began when tumors reached a volume of approximately 75 mm^3, on day 14 post tumor implantation. The compounds administered were Rp, Rp dithio cyclic [G(2′,5′)pG(3′,5′)p] (ML RR-CDG) (25 μg in a total volume of 40 μL HBSS), Rp, Rp dithio cyclic [A(2′,5′)pA(3′,5′)p] (ML RR-CDA) (50 μg in a total volume of 40 μL HBSS), the TLR9 agonist CpG 1668 (50 μg in a total volume of 40 μL HBSS), or HBSS vehicle control. Mice were treated by subcutaneous injection into the center of tumor only using a 27 gauge needle. Injections were repeated every three days, for a total of three intratumoral injections.

B16 melanoma cells [2] = assay: B16 melanoma tumor model in STING-deficient mice, intratumoral CDN; assay type: in vivo, goldenticket STING−/− mice; conditions: ML RR-CDG 25 μg, ML RR-CDA 50 μg, CpG 1668 50 μg, three injections, FIG. 20B
Method: as §1

SMILES: Nc1ncnc2c1ncn2[C@@H]1O[C@@H]2COP(O)(=S)O[C@@H]3C(O)[C@@H](COP(O)(=S)O[C@H]2[C@H]1O)O[C@H]3n1cnc2c(N)ncnc21 (stereo partly drawn) [ML RR-CDA, dithio-[RP, RP]-cyclic-[A(2′,5′)pA(3′,5′)p]]
- IFN-β levels (THP1-Blue™ ISG cells): significantly higher IFN-β levels that either the unmodified CDA or ML CDA molecules
- induction of type I interferon, untreated compounds (THP1-Blue™ ISG cells; 50 μM, mock treated, 16 hr incubation, FIG. 12): more potent inducers of type I interferon than the oxo
- anti-tumor efficacy (tumor volume) (B16 melanoma cells [1]): potent anti-tumor efficacy
- tumor rejection (B16 melanoma cells [1]; P=0.0004, student's t-test): significantly more tumor rejection than the ML CDA derivative
- tumor growth in STING−/− mice (B16 melanoma cells [2]): not inhibited

SMILES: Nc1nc2c(ncn2[C@@H]2O[C@@H]3CO[P@@](O)(=S)O[C@@H]4[C@H](O)[C@@H](CO[P@@](O)(=S)O[C@H]3[C@H]2O)O[C@H]4n2cnc3c(=O)[nH]c(N)nc32)c(=O)[nH]1 [ML RR-CDG, dithio-[RP,RP]-cyclic-[G(2′,5′)pG(3′,5′)p]]
- IFN-β levels (THP1-Blue™ ISG cells): significantly higher levels of IFN-β than the unmodified cyclic c-di-GMP (CDG) or modified CDG molecules
- anti-tumor efficacy (tumor volume) (B16 melanoma cells [1]): potent anti-tumor efficacy
- tumor status by day 44 post tumor implantation (B16 melanoma cells [1]): mice remained nearly tumor-free
- tumor growth in STING−/− mice (B16 melanoma cells [2]): not inhibited
